Data taken from publication PMC10815991, “Membrane-Bound Redox Enzyme Cytochrome bd-I Promotes Carbon Monoxide-Resistant Escherichia coli Growth and Respiration” (International Journal of Molecular Sciences, 2024).
Like-named read-outs stand apart in the source and are kept apart here.

Tests used:
[1] = target: T1, cytochrome bo3 (bo3-only E. coli cells) (Escherichia coli, UniProt P0ABI8); experiment: O2 consumption (aerobic respiration) of bo3-only E. coli cell suspensions; assay type: cell-based
T1 construct: the oxidases were in vivo conditions, i.e., integrated into native bacterial membranes; endogenous in cells; host or cells: E. coli TBE025 (MG1655 ΔcydB nuoB appB::kan); whole cells (A3) or membranes isolated from them (A7)
T1 sequence (P0ABI8 whole entry): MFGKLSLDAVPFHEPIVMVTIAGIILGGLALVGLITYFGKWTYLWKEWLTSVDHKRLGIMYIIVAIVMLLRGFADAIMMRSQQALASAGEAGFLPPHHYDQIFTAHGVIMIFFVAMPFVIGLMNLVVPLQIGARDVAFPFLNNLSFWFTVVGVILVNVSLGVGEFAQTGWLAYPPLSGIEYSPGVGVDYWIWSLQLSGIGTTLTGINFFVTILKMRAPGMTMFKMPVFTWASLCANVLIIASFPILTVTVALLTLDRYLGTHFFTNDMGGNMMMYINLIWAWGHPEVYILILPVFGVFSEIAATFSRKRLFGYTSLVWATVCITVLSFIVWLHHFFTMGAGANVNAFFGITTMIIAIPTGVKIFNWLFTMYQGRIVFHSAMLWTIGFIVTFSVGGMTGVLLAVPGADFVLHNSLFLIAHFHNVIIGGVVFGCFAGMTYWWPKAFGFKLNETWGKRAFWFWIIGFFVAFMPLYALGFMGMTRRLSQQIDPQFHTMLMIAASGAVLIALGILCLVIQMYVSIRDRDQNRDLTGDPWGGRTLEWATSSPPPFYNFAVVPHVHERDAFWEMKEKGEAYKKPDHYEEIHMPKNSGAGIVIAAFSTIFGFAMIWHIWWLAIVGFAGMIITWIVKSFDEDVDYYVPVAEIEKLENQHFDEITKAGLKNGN
T1 sequence (P0ABJ1 25-315 partner): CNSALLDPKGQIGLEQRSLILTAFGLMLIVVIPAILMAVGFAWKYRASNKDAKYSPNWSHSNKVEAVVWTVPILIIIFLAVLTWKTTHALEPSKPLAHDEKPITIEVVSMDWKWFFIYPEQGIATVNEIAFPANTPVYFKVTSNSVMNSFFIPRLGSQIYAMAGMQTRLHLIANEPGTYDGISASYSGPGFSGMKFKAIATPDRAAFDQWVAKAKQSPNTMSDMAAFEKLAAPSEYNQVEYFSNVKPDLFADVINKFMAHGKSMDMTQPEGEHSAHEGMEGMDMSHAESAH
T1 sequence (P0ABJ3 whole entry partner): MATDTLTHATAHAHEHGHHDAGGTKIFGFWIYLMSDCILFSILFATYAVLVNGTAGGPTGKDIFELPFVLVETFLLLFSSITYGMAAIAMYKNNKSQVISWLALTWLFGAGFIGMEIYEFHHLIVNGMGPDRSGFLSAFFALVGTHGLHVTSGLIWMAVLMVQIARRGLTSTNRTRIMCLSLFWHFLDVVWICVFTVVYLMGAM
T1 sequence (P0ABJ6 whole entry partner): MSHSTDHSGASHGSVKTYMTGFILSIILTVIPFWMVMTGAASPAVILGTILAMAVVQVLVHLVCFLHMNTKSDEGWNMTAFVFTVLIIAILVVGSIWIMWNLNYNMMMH
Method: (§1) The CO and N2 gases were purchased from Linde (Danbury, CT, USA) and Air Liquide (Air Liquide Italia Spa, Milano, Italy), respectively. Other chemicals were purchased from Merck KGaA (Darmstadt, Germany). A stock solution of CO or N2 was prepared by equilibrating degassed water with the pure gas at 1 atm and room temperature, yielding 1 mM CO and 0.7 mM N2 in solution. E. coli respiratory mutant strains TBE025 (MG1655 ΔcydB nuoB appB::kan), TBE026 (MG1655 ΔcydB nuoB cyoB::kan), and TBE037 (MG1655 ΔappB nuoB cyoB::kan), which respectively express cytochrome bo3, cytochrome bd-II, or cytochrome bd-I as the sole terminal oxidase, were used. E. coli cultures were grown in Luria–Bertani (LB) medium supplemented with 30 μg/mL kanamycin, at 37 °C and 200 rpm. In the case of growth studies, after inoculation at an OD600 of 0.15 ± 0.03, the cells were grown in 50 mL rubber-stoppered flasks in 16 mL of air-equilibrated LB at 37 °C for 60 min; when OD600 reached 0.4 ± 0.08, they were bubbled for 30 s with either CO (pure gas at 1 atm and room temperature) or N2 (pure gas at 1 atm and room temperature) as a control to yield a final concentration of both gases of ~20%. The gas percentage was assessed by taking into account the different O2 concentrations, present in equal volumes of LB equilibrated with air or flushed with CO/N2 for 30 s, and calculated according to the following equation: Gas % = ([O2] air equilibrated − [O2] gas flushed)/[O2] air equilibrated × 100. [O2] air equilibrated and [O2] gas flushed are the O2 concentration values measured in the degassed chamber of a high-resolution respirometer (Oxygraph-2k, Oroboros Instruments GmbH, Innsbruck, Austria) of non-fluxed and fluxed E. coli cultures with CO or N2, respectively. The growth of the E. coli cultures was then monitored via a standard method using optical density measurements in an Eppendorf BioSpectrometer basic at 600 nm every 30 min. When the OD600 was above 1, cultures were diluted before reading.
(§2) Oxygraphic measurements were performed at 25 °C in 50 mM K/phosphate pH 7.0, using a high-resolution respirometer (Oxygraph-2k, Oroboros Instruments GmbH, Innsbruck, Austria) equipped with two 1.5-mL chambers. The O2 consumption of E. coli cells was followed with endogenous reductants. In the case of isolated membranes, O2 consumption was measured in the presence of 2.5 mM dithiothreitol (DTT) and 2.5 μM 2,3-dimethoxy-5-methyl-6-(3-methyl-2-butenyl)-1,4-benzoquinone (Q1), an artificial reducing couple specific for quinol oxidases. The catalytic O2-consuming activity was obtained by subtracting the non-enzymatic O2 consumption (Q1/DTT autoxidation in the absence of the membranes) from the O2 consumption rate measured after the addition of membranes.
(§3) UV–visible absorption spectra were recorded to estimate the amount of each terminal oxidase present in cell suspensions. For this purpose, an Agilent Cary 60 UV-Vis or a Varian Cary 300 Bio UV-Visible spectrophotometer was used.
(§4) Data analysis was carried out using software packages Origin v7.0 (OriginLab Corporation, Northampton, MA, USA) and GIM (Scientific Graphic Interactive Management System developed by A.L. Drachev in Lomonosov Moscow State University). The percentage inhibition of O2 consumption of cell suspensions (i%) was calculated using the equation i% = ((V0 − V0,i)/V0)·100, where V0 and V0,i are the initial rates in the absence and in the presence of the inhibitor (CO), respectively. The apparent IC50 values of cytochromes bd-II and bo3 for CO were estimated by plotting i% as a function of CO concentration added ([CO]0). The data were fitted to the standard hyperbolic equation i% = imax%·[CO]0/(IC50 + [CO]0) using a built-in approximation function (‘Hyperbola function’) in ‘Advanced Fitting tool’ in the Origin program. The imax% parameter is a theoretical maximum percent inhibition. […]

[2] = target: T2, cytochrome bd-I (bd-I-only E. coli membranes) (Escherichia coli, UniProt P0ABJ9); experiment: O2 reductase activity of isolated bd-I-containing membranes; assay type: biochemical
T2 construct: the oxidases were in vivo conditions, i.e., integrated into native bacterial membranes; endogenous in cells; host or cells: E. coli TBE037 (MG1655 ΔappB nuoB cyoB::kan); whole cells (A1) or membranes isolated from them (A5)
T2 sequence (P0ABJ9 whole entry): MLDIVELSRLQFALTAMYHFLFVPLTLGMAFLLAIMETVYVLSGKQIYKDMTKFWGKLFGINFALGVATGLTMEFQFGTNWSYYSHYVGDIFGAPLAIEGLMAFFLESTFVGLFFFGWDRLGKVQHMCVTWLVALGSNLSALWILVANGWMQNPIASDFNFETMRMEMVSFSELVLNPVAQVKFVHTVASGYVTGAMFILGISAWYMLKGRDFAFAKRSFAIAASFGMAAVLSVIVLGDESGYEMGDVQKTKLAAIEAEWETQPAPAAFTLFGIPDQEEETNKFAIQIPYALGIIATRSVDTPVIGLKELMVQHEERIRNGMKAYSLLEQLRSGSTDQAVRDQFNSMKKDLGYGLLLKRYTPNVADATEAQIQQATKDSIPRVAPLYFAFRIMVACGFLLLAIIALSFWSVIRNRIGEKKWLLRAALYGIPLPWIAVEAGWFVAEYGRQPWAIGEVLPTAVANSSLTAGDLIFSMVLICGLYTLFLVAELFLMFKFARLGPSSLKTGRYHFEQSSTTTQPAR
T2 sequence (P0ABK2 whole entry partner): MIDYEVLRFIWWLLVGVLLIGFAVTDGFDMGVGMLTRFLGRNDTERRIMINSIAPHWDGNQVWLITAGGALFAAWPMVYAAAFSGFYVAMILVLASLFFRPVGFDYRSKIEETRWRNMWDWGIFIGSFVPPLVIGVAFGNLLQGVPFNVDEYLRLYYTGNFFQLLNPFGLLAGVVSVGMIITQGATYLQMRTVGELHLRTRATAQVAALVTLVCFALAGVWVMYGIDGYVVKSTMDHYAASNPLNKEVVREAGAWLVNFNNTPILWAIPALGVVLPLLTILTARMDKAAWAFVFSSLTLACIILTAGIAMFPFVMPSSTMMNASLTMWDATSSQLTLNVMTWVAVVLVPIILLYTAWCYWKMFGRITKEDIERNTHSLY
T2 sequence (P56100 whole entry partner): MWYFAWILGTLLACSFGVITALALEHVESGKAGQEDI
T2 sequence (A5A618 whole entry partner): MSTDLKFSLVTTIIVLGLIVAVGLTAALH
Method: To isolate membranes from E. coli respiratory mutants expressing only one terminal quinol oxidase (cytochrome bd-I or cytochrome bd-II or cytochrome bo3), cell cultures were grown in LB medium until an OD600 of about 2 was reached. The cells were then pelleted by centrifugation at 10,000 rpm for 10 min and washed twice in 20 mM TRIS pH 8.3 containing 0.5 mM EDTA and 5 mM MgSO4. The cells were resuspended in the same buffer containing 1 mg/mL lysozyme and incubated for two hours on ice. A spatula tip of DNAse and RNase was then added, and the cells were lysed by sonication. Cell debris was removed by centrifugation at 15,000 rpm for 10 min. Membrane fractions were collected and stored at −80 °C. The protein content was determined using the Bradford method, using the Bradford reagent (Sigma) with bovine serum albumin as standard.
as §2, with “The catalytic O2-consuming activity was obtained by subtracting the non-enzymatic O2 consumption (Q1/DTT autoxidation in the absence of the membranes) from the O2 consumption rate measured after the addition of membranes.” left out

cytochrome bd-I heme d2+ = details: fully reduced form of the CO-bound enzyme; cited from earlier work
[3] = target: T3, cytochrome bd-II (bd-II-only E. coli cells) (Escherichia coli, UniProt P26459); set-up: method as in PMID 37515940; details: [O2] = 150 μM; cited from earlier work
T3 construct: the oxidases were in vivo conditions, i.e., integrated into native bacterial membranes; endogenous in cells; host or cells: E. coli TBE026 (MG1655 ΔcydB nuoB cyoB::kan); whole cells (A2) or membranes isolated from them (A6)
T3 sequence (P26459 whole entry): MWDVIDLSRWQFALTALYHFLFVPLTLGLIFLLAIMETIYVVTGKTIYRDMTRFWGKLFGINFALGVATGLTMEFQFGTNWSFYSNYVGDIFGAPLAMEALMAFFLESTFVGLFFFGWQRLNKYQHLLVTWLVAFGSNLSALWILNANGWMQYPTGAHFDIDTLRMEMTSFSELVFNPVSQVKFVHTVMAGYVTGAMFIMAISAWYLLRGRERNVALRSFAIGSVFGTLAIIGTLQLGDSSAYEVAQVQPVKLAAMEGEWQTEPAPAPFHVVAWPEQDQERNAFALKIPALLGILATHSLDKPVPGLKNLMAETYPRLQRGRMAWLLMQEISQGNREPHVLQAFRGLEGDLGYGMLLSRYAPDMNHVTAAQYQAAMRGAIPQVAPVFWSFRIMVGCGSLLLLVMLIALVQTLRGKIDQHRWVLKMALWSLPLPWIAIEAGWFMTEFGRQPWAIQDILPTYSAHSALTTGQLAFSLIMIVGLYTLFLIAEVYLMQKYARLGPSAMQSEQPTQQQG
T3 sequence (P26458 whole entry partner): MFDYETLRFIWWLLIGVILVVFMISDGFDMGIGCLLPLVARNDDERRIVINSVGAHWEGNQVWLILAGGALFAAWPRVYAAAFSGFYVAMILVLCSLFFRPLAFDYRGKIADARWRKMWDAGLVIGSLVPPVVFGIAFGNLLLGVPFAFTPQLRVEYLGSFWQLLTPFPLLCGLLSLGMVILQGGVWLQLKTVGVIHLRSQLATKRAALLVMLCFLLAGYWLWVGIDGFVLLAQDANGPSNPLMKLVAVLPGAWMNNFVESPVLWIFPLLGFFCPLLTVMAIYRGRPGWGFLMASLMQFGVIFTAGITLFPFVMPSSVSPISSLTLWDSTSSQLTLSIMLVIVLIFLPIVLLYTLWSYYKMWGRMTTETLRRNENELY
T3 sequence (P24244 whole entry partner): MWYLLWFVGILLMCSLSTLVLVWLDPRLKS

[4] = target: T3, cytochrome bd-II (bd-II-only E. coli cells); experiment: O2 consumption (aerobic respiration) of bd-II-only E. coli cell suspensions; assay type: cell-based; details: for IC50: read-out: apparent IC50
Method: as §1, §2, §3, §4

[5] = test system: E. coli mutant strain expressing cytochrome bd-II as the sole terminal oxidase; experiment: Cell growth (OD600) of bd-II-only strain in presence of CO; assay type: cell-based, Escherichia coli; details: ~20% CO added at 60 min after start of growth in air, vs ~20% N2 control
Method: as §1, with “E. coli cultures were grown in Luria–Bertani (LB) medium supplemented with 30 μg/mL kanamycin, at 37 °C and 200 rpm. In the case of growth studies, after inoculation at an OD600 of 0.15 ± 0.03, the cells were grown in 50 mL rubber-stoppered flasks in 16 mL of air-equilibrated LB at 37 °C for 60 min; when OD600 reached 0.4 ± 0.08, they were bubbled for 30 s with either CO (pure gas at 1 atm and room temperature) or N2 (pure gas at 1 atm and room temperature) as a control to yield a final concentration of both gases of ~20%.” left out, “When the OD600 was above 1, cultures were diluted before reading.” left out

[6] = test system: E. coli wild-type strain MG1655 cells; experiment: O2 consumption of wild-type E. coli cell suspensions at high and low OD; assay type: cell-based, Escherichia coli
[7] = target: T1, cytochrome bo3 (bo3-only E. coli cells); set-up: method as in PMID 38188931; details: [O2] = 150 μM; cited from earlier work

[C-]#[O+] [CO, Carbon monoxide]
IC50 ([1]; CO added at [O2] = 200 μM, read-out: apparent IC50): 330 ± 19.6 µM | Ki ([1]; estimated from IC50 values at different [O2], assuming competitive inhibition, Km(O2) 6 µM): 8.4 ± 0.7 µM | CO inhibition of O2 reductase activity of membranes [2]: relatively resistant to inhibition by CO | koff, dissociation of CO from the oxidase (cytochrome bd-I heme d2+): 6.0 ± 0.2 s⁻¹ | IC50 [3]: 187 ± 11.1 µM | inhibition of O2 consumption ([4]; 96.3 μM CO added at [O2] = 100 μM, bd-II-only cells): 43.3 ± 7.6% | maximum inhibition percentage of respiration ([4]; 196.3 μM CO added at [O2] = 50 μM): 59.3 ± 11.5% | maximum inhibition percentage of respiration ([4]; 196.3 μM CO added at [O2] = 100 μM): 50.0 ± 3.6% | maximum inhibition percentage of respiration ([4]; 196.3 μM CO added at [O2] = 200 μM): 47.0 ± 6.0% | IC50 ([4]; CO added at [O2] = 50 μM): 88.6 ± 9.3 µM | IC50 ([4]; CO added at [O2] = 100 μM): 170 ± 15 µM | IC50 ([4]; CO added at [O2] = 200 μM): 230 ± 12 µM | Ki ([4]; estimated from IC50 values at different [O2], assuming competitive inhibition, Km(O2) 2 µM): 2.5 ± 0.2 µM | effect on cell growth [5]: severely impaired | sensitivity of O2 consumption to CO ([6]; wild-type cells harvested at high OD600 (prevalent expression of a bd-type oxidase)): low | sensitivity of O2 consumption to CO ([6]; wild-type cells harvested at low OD600 (prevalent expression of cytochrome bo3)): high | IC50 [7]: 183 ± 13.5 µM
